According to article PMC12294753, “Development of INER-PP-F11N as the Peptide-Radionuclide Conjugate Drug Against CCK2 Receptor-Overexpressing Tumors” (International Journal of Molecular Sciences, 2025):
Like-named read-outs stand apart in the source and are kept apart here. Where a SMILES comes first, the peptide text is derived from it. [ ]: non-standard residue; d: D form. The star is where a group is joined. DOTA = O=C(O)CN1CCN(CC(=O)O)CCN(CC(=O)*)CCN(CC(=O)O)CC1; Butanoyl(4-(4-MePh)) = Cc1ccc(CCCC(=O)*)cc1; 4Amb = NCc1ccc(C(=O)O)cc1; Nle = CCCC[C@H](N)C(=O)O

How the values were obtained:
[1] = tested on: A431-CCK2R (−)/A431-CCK2R (+) tumor-bearing mice; experiment: NanoSPECT/CT imaging of tumor-bearing mice; type: in vivo
Experimental: (§1) To generate A431-CCK2R (+) and A431-CCK2R (−) tumor-bearing mice models, mice (3 per group) were inoculated subcutaneously with 6 × 10^6 cells, which were injected into the inner right back leg for A431-CCK2R (+) tumors and the left back leg for A431-CCK2R (−) tumors, respectively. These xenografts were monitored until the tumor volume reached approximately 200–500 mm^3 [57]. The mice were then randomized to subgroups for further experiments. The formula for calculating tumor volume (V) is V = 4/3πr^3.
The NanoSPECT/CT® plus scanner system (Mediso Medical Imaging Systems; Budapest, Hungary) was utilized to detect in vivo tumors in the in vivo animal models. Both A431-CCK2R (+) and A431-CCK2R (−) cancer cells were inoculated subcutaneously into the inner right leg and left back leg of the mice. Radiopharmaceuticals—[^111In]In-DOTA-PP-F11N, [^111In]In-DOTA-INER-PP-F11N-1, and [^111In]In-DOTA-INER-PP-F11N-2 (1 mCi)—were injected once the mean tumor volume reached approximately 200–500 mm^3. Inhalant (1–2% isoflurane) was used to anesthetize the mice during imaging acquisition. X-ray CT images and SPECT images were taken 4, 24, and 48 h after tail-vein injection. NanoSPECT imaging was acquired using nine multi-pinhole gamma detectors with high-resolution collimators. The energy window was set at 171 and 245 KeV ± 10%, the image size was set at 256 × 256, and the field of view was set at 60 mm × 100 mm.
For Lu-177, only 208 keV photons were used for imaging, with an energy window set at 208 keV ± 10%. Although Lu-177 also emits lower abundance photons at 113 keV, the 208 keV photon provides better image quality due to reduced scatter and higher energy resolution. Therefore, the gamma camera energy windows were specifically tailored to the photon emission profiles of each radionuclide to ensure optimal detection efficiency and image accuracy.
(§2) We investigated therapeutic responses in mice receiving [^177Lu]Lu-DOTA-PP-F11N, [^177Lu]Lu-DOTA-INER-PP-F11N-1, or [^177Lu]Lu-DOTA-INER-PP-F11N-2. A431-CCK2R (+) and A431-CCK2R (−) cells were implanted subcutaneously into the right and left inner hind legs of NOD/SCID mice. Once the tumors reached a volume of 200–500 mm^3, the mice were intravenously injected with either 200 μCi of [^177Lu]Lu-DOTA-PP-F11N, [^177Lu]Lu-DOTA-INER-PP-F11N-1, [^177Lu]Lu-DOTA-INER-PP-F11N-2, or PBS (as a non-radioactive control). The NanoSPECT/CT® plus scanner system (Mediso Medical Imaging Systems; Budapest, Hungary) was utilized to detect and image tumors in the mouse models. Tumor volumes were measured twice a week for 4 weeks.

[2] = Metabolic stability analysis (radio-HPLC) in PBS at 4 °C or FBS at 37 °C; type: in vitro ADME
Experimental: DOTA-PP-F11N, DOTA-INER-PP-F11N-1, and DOTA-INER-PP-F11N-2 were labeled with In-111 and Lu-177 for further experiments. The detection of free In-111 after ITLC extension was defined as 0% radiolabeling efficiency. […]
To measure the labeling efficiency, ITLC was performed on glass microfiber chromatography paper impregnated with a silica gel (Agilent Technologies, Santa Clara, CA, USA) as described previously. Briefly, the ITLC sheets were developed with 10% methanol as solvent (Rf free Lu-177 = 0, Rf Lu-177-labeled compounds = 1) and measured using a radioactive scanner (AR-2000 radio-TLC […] Imaging Scanner, Bioscan, France). The sample was mixed with acetonitrile at a 1:1 (v/v) ratio, followed by centrifugation at 16,000× g for 5 min. The resulting supernatant was subsequently analyzed using HPLC with UV (220[…]) and radio detector with a Zorbax SB-C18 column (Agilent Technologies, Santa Clara, CA, USA). The flow rate was 0.8 mL/min, with the gradient mobile phase going from 90% A […] buffer (0.1% TFA in water) and 10% B buffer (0.1% TFA in acetonitrile) to 90% B buffer […] within 20 min.

A431-CCK2R (+) cells = experiment: In vitro binding and internalization assay, A431-CCK2R (+) cells; type: cell-based; design: surface binding activity / internalization activity: concentration or dose not given beside the values; details: for internalization activity / surface binding activity: A431-CCK2R (+) cells, 37 °C; for enhancement of internalization activity compared with PP-F11N: A431 CCK2R (+) cells, compared with conventional [^177Lu]Lu-DOTA-PP-F11N
Experimental: (§3) In vitro binding and internalization activities were measured using a gamma counter (WIZARD 1480, Perkin-Elmer). Briefly, A431-CCK2R (+) and A431-CCK2R (−) cells were seeded on 24-well plates (1 × 10^5 cells/well, Corning, NY, USA) for 12 h. The plated cells were treated with 30 ± 10 GBq/µmol of [^177Lu]Lu-DOTA-PP-F11N, [^177Lu]Lu-DOTA-INER-PP-F11N-1, or [^177Lu]Lu-DOTA-INER-PP-F11N-2 (1 mL/well) and then incubated at 37 °C for either 1 or 4 h. After incubation, the medium was collected, and the cells were then washed with ice-cold buffer. The medium and washed PBS were collected in tube 0. The washed cells were treated with glycine–HCl buffer (0.1 M, pH 3.0) and incubated for 10 min. After incubation, cells were washed again with glycine–HCl buffer. Both glycine-HCl buffer solutions were collected in tube 1. The washed cells were treated with 1 N NaOH (1 mL/well) and incubated for 10 min for cell lysis. After incubation, the cells were washed once with 1 N NaOH. The cell lysate solution was collected in tube 2. All tubes were analyzed using a gamma counter to detect radioactivity. Data were obtained from at least three independent experiments. The respective formulae for in vitro surface binding activity and internalization were as follows:Surface binding = tube 1/(tube 0 + tube 1 + tube 2) × 100%.Internalization = tube 2/(tube 0 + tube 1 + tube 2) × 100%.

A431-CCK2R (+) tumors [3] = experiment: Biodistribution study in tumor-bearing mice; type: in vivo; details: biodistribution studies
Experimental: as §1
(§4) Mice were sacrificed via CO2 asphyxiation 72 h after intravenous injection of 50–100 μCi (50–100 μL) of radiolabeled DOTA-PP-F11N, DOTA-INER-PP-F11N-1, or DOTA-INER-PP-F11N-2 [58]. Tumors and organs of interest were collected for further pathological examinations. The PerkinElmer 2480 Automatic Gamma Counter (PerkinElmer, Waltham, MA, USA) was used to measure radioactivity; the data are presented as the percentage injected dose per gram of tissue (%ID/g).

[4] = Biodistribution study in tumor-bearing mice; type: in vivo; details: mouse, intravenous, total radioactivity, 72 h after tail-vein injection, tumor-bearing mice
Experimental: as §1, §4

A431-CCK2R (−) cells = experiment: In vitro binding and internalization assay, A431-CCK2R (−) cells; type: cell-based; details: 37 °C
Experimental: as §3

[5] = Histopathological examinations (H&E) of mice after radiolabeled drug administration; type: in vivo; details: light microscopy
Source text: To investigate the pathological alterations in tumor-bearing mice receiving radiopharmaceuticals, […] tissues, including tumors, heart, liver, and kidneys, were collected. The specimens were first fixed using 10% buffered neutral formalin and then embedded in paraffin. Sections of 3–5 μm thickness were stained with H&E and examined using light microscopy (40 × and 20 ×).

A431-CCK2R (+) tumors [6] = experiment: Therapeutic responses to Lu-177-labeled CCK2R analogs in CCK2R-expressing cancer-bearing mice; type: in vivo; details: 200 μCi intravenously
Experimental: as §1, §2

CCK2R = tested on: CCK2R; design: method as in PMID 10494457, PMID 10188727; details: cited from earlier work
[7] = tested on: human gastric cancer ascites cells; design: method as in PMID 10494457, PMID 10188727; details: mouse models inoculated with human gastric cancer ascites cells; cited from earlier work
[8] = tested on: human pancreatic cancer cells; design: method as in PMID 10636070, PMID 7813546; details: cited from earlier work

For `CCCC[C@H](NC(=O)[C@H](Cc1c[nH]c2ccccc12)NC(=O)CNC(=O)[C@H](Cc1ccc(O)cc1)NC(=O)[C@H](C)NC(=O)[C@@H](CCC(=O)O)NC(=O)[C@@H](CCC(=O)O)NC(=O)[C@@H](CCC(=O)O)NC(=O)[C@@H](CCC(=O)O)NC(=O)[C@@H](CCC(=O)O)NC(=O)[C@@H](CCC(=O)O)NC(=O)c1ccc(CNC(=O)[C@H](CCCCNC(=O)CCCc2ccc(C)cc2)NC(=O)CN2CCN(CC(=O)O)CCN(CC(=O)O)CCN(CC(=O)O)CC2)cc1)C(=O)N[C@@H](CC(=O)O)C(=O)N[C@@H](Cc1ccccc1)C(N)=O` [[^177Lu]Lu-DOTA-INER-PP-F11N-1, metal not drawn] ({DOTA}-K(Butanoyl(4-(4-MePh)))[4Amb][dE][dE][dE][dE][dE][dE]AYGW[Nle]DF-NH2), the “radioactivity within the kidneys on NanoSPECT/CT” value ([1]; compared with Lu-177-labeled PP-F11N over the same period) was “significantly lower”, the “radiotracer accumulation in the tumor region on NanoSPECT/CT” value ([1]; tail-vein injection, Lu-177-labeled) was “avid radiotracer uptake within the tumor” and the metabolic stability ([2]; 4 °C PBS, 144 h after Lu-177 labeling) was “more than 95%”. For the same molecule, the metabolic stability ([2]; Lu-177-labeled, 37 °C FBS, 144 h) was over 99%, the internalization activity (A431-CCK2R (+) cells; 1 h) was 45.32 ± 6.12% and the surface binding activity (A431-CCK2R (+) cells; 1 h) was 5.93 ± 1.68%. The internalization activity (A431-CCK2R (+) cells; 4 h) was 90.49 ± 5.65%, the surface binding activity (A431-CCK2R (+) cells; 4 h) was 14.57 ± 4.06% and the “enhancement of internalization activity compared with PP-F11N” value (A431-CCK2R (+) cells) was 26.7%. The “enhancement of internalization activity compared with PP-F11N” value (A431-CCK2R (+) cells; listed as 177Lu-DOTA-INER-PP-F11N-1) was 27%, the tumor-to-kidney ratio (A431-CCK2R (+) tumors [3]) was “favorable” and the tissue uptake at 72 h ([4]; kidneys, read-out: radiotracer accumulation in the kidneys) was 7.4 ± 2.3 %ID/g. It also gave a tissue uptake at 72 h ([4]; tumor (A431-CCK2R (+)), read-out: tumor uptake of radiopharmaceuticals) of 1.14 ± 0.92 %ID/g, an internalization activity (A431-CCK2R (−) cells; 1 h) of 0.32 ± 0.10 %IA/106 cells and a surface binding activity (A431-CCK2R (−) cells; 1 h) of 1.08 ± 0.49 %IA/106 cells. For the same molecule, the internalization activity (A431-CCK2R (−) cells; 4 h) was 0.17 ± 0.03 %IA/106 cells, the “histopathological changes in the kidneys” value [5] was “no significant histopathological changes” and the “histopathological changes in the liver and heart” value [5] was “no significant histopathological changes”. For the same molecule, the “tumor volume at D23” value (A431-CCK2R (+) tumors [6]) was 841.33 ± 165.70 mm^3.

For `C[C@](Cc1c[nH]c2ccccc12)(NC(=O)OC1[C@H]2C[C@@H]3C[C@@H](C[C@H]1C3)C2)C(=O)NC[C@H](NC(=O)CCC(=O)O)c1ccccc1` (stereo partly shown) [CI-988], the “gastrin binding to CCK2R” value (CCK2R) is given as “block gastrin binding to CCK2R” and the survival [7] is given as “improve survival”.

For `Cc1cccc(NC(=O)N[C@@H]2N=C(c3ccccc3)c3ccccc3N(C)C2=O)c1` [L-365260], the exogenous gastrin-induced proliferation [8] is listed as “inhibited”.
